Paper PMC3671792 (Biochemical Journal, 2013)

Tests used:
[1] = target: T1, ZmCK2α (Zea mays, UniProt P28523); conditions: 25 uM ATP, 10 mM MgCl2, pH 7.5, 30 °C; labelled compound; GST-Rh2b phosphorylated, GST-AMA1 not
T1 construct: gene ACK2

[2] = target: T2, MmPKAc (Mus musculus, UniProt P05132); conditions: 25 uM ATP, 10 mM MgCl2, pH 7.5, 30 °C; labelled compound; GST-AMA1 phosphorylated, GST-Rh2b not
T2 construct: gene Prkaca

[3] = target: T3, PfCK2 α (CK2–HA, immunoprecipitated) (Plasmodium falciparum, UniProt Q8IIR9); experiment: phosphorylation of GST-Rh2b CPD by immunoprecipitated CK2-HA, phospho-specific Western blot; type: biochemical; conditions: 25 uM ATP, 10 mM MgCl2, pH 7.5, 30 °C; protein substrate GST-Rh2b CPD; kinase on beads
T3 construct: gene PF3D7_1108400; full coding region with C-terminal 3xHA tag, overexpressed episomally (crt promoter) in 3D7 parasites, immunoprecipitated on anti-HA/Protein G beads, ~42 kDa band; endogenous beta1/beta2 subunits could co-precipitate
T3 sequence (Q8IIR9 entry or part of it): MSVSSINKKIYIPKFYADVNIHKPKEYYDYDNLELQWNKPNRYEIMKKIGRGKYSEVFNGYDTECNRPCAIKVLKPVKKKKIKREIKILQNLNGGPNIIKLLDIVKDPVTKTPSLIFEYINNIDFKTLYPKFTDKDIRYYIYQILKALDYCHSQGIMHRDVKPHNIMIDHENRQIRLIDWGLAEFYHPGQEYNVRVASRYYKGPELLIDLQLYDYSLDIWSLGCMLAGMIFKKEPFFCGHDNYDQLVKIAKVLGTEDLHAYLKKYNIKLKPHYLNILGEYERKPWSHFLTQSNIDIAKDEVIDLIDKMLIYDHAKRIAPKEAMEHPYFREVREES

T1 sequence (P28523 whole entry): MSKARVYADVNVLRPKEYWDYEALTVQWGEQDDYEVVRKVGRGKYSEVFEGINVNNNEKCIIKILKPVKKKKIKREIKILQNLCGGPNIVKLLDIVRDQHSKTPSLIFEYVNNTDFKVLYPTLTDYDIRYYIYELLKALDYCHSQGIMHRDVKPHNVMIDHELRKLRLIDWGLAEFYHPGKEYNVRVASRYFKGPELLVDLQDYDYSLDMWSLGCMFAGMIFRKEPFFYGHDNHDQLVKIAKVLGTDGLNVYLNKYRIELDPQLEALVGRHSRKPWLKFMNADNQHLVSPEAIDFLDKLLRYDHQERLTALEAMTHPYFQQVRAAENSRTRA

SMILES	in vitro kinase assay with GST-Rh2b CPD, [γ-32P]ATP [1]	in vitro kinase assay with GST-AMA1 CPD, [γ-32P]ATP [2]	inhibition (qualitative) [3]
Nc1ncnc2c1ncn2[C@@H]1O[C@H](COP(=O)(O)OP(=O)(O)OP(=O)(O)O)[C@@H](O)[C@H]1O [ATP]	the enzyme was able to phosphorylate GST–Rh2b	Although MmPKAc phosphorylated AMA1–GST, it showed no reactivity against GST–Rh2b	
O=C(O)/C=C/c1cc(Br)c(Br)c(Br)c1Br [TBCA]			sensitive to heparin treatment (Figure 4E) and to increasing amounts of TBCA (Figure 4F)
